# Assay results reported in ChEMBL document CHEMBL3792367, “Synthesis and molecular modeling of antimicrobial active fluoroquinolone-pyrazine conjugates with amino acid linkers” (2016).
# What was measured:
# [1] = test system: Pseudomonas aeruginosa; test: Antibacterial activity against Pseudomonas aeruginosa ATCC 27853 after 18 hrs by agar dilution method; format: functional; settings: ATCC 27853, 18 h
# [2] = test system: Staphylococcus aureus; test: Antibacterial activity against Staphylococcus aureus ATCC 25923 after 18 hrs by agar dilution method; format: functional; settings: ATCC 25923, 18 h
# [3] = test system: Salmonella typhi; test: Antibacterial activity against Salmonella typhi ATCC 19430 after 18 hrs by agar dilution method; format: functional, Salmonella enterica subsp. enterica serovar Typhi; settings: Salmonella enterica, ATCC 19430, 18 h
# [4] = test system: Streptococcus pyogenes; test: Antibacterial activity against Streptococcus pyogenes ATCC 19615 after 18 hrs by agar dilution method; format: functional; settings: ATCC 19615, 18 h
Structure (SMILES),MIC [1],MIC [2],MIC [3],MIC [4]
O=C(NCCCC(=O)N1CCN(c2cc3c(cc2F)c(=O)c(C(=O)O)cn3C2CC2)CC1)c1cnccn1,597 µM,0.0746 µM,2390 µM,149 µM
C[C@H](NC(=O)c1cnccn1)C(=O)N1CCN(c2cc3c(cc2F)c(=O)c(C(=O)O)cn3C2CC2)CC1,2460 µM,2.46 µM,2460 µM,2460 µM
CCn1cc(C(=O)O)c(=O)c2cc(F)c(N3CCN(C(=O)CNC(=O)c4cnccn4)CC3)cc21,2490 µM,0.648 µM,1300 µM,1300 µM
CCn1cc(C(=O)O)c(=O)c2cc(F)c(N3CCN(C(=O)CCNC(=O)c4cnccn4)CC3)cc21,2520 µM,0.628 µM,2520 µM,1260 µM
CCn1cc(C(=O)O)c(=O)c2cc(F)c(N3CCN(C(=O)CCCNC(=O)c4cnccn4)CC3)cc21,2450 µM,2.45 µM,76.4 µM,2450 µM
CCn1cc(C(=O)O)c(=O)c2cc(F)c(N3CCN(C(=O)[C@H](C)NC(=O)c4cnccn4)CC3)cc21,2520 µM,0.629 µM,2520 µM,1260 µM
O=C(NCC(=O)N1CCN(c2cc3c(cc2F)c(=O)c(C(=O)O)cn3C2CC2)CC1)c1cnccn1,2530 µM,2.53 µM,2530 µM,2530 µM
O=C(NCCC(=O)N1CCN(c2cc3c(cc2F)c(=O)c(C(=O)O)cn3C2CC2)CC1)c1cnccn1,2460 µM,0.307 µM,2460 µM,614 µM
O=C(O)c1cn(C2CC2)c2cc(N3CCNCC3)c(F)cc2c1=O [CIPROFLOXACIN],14.5 µM,3.77 µM,7.2 µM,3770 µM
CCn1cc(C(=O)O)c(=O)c2cc(F)c(N3CCNCC3)cc21 [NORFLOXACIN],15 µM,3.91 µM,7.5 µM,1960 µM
